Data on 3 molecules can be found in patent US7144982B2, “Polypeptides with therapeutic activity and methods of use” (University of Minnesota, priority 2000, dated 2006).

Read-outs that look alike come from different tables or passages of the source.

The subject of assay [1] is E. coli J5. As to the kind of experiment: Bactericidal assay, rough strain E. coli J5. Type of assay: cell-based. To be noted: Table 1; E. coli J5; SD about ±30%. An excerpt:
(§1) Pseudomonas aeruginosa type 1 is a clinical, smooth strain isolate serotyped by using the scheme of Homma, Japan. J. Exp. Med. 46, 329–336 (1976) and maintained in the lab by monthly transfer on blood agar plates. E. coli J96, IA2, and H5 are smooth strain, uropathogenic clinical isolates kindly maintained and provided by J. R. Johnson and described in Johnson et al., J. Infect. Disease 173, 920–926 (1996) for J96 and IA2 and in Johnson et al., J. Infect. Disease 173, 746–749 (1996) for H5. J5 is an E. coli rough strain initially referenced by G. R. Siber and discussed in Warren et al., Infect. Immunity 55, 1668–1673 (1987) and is analogous to the smooth strain E. coli 0111:B4 used in the BioWhittaker LAL endotoxin detection and quantitation kit described below. Gram-positive MN8 and MNHO are two patient isolates of Staphylococcus aureus, which were kindly provided by P. M. Schlievert and described in Bohach et al., Rev. Infect. Diseases 11, 75–82 (1989) for MNHO and in Schlievert et al., J. Infect. Diseases 147, 236–242 (1983) for MN8. All cultures are maintained on nutrient agar plates.
(§2) Pyrogen-free solutions were used throughout the assay. Log phase bacteria were obtained by transferring an overnight culture or scraping crystals off −85° C. glycerol stocks of overnight cultures. Bacteria were washed and resuspended in 0.9% sodium chloride with adjustment to an optical density at 650 nm which yields 3×10^8 CFU/ml. Bacteria were then diluted 1:10 in 0.08 M citrate phosphate buffer, pH 7.0 (prepared by mixing 0.08 M citric acid with 0.08 M dibasic sodium phosphate). Bacteria (0.15 ml) were incubated with peptide in a final volume of 1.0 ml of buffer. The assay was done in 17×100 polypropylene tubes in a reciprocal water bath shaker at 37° C. for 30 minutes. Following this 30 minute (min) incubation, 10-fold dilutions were made in 0.9% sodium chloride. Dilutions were done to 10^−4 and 20 μl of each dilution was streaked across an agar plate. Gram-positive organisms were plated on nutrient agar plates containing 2% agar and Gram-negative organisms were plated on MacConkey agar (2%). Plates were incubated overnight at 37° C. and counted the next morning. The dilution containing 10–100 bacteria was counted and the number multiplied by 50 to adjust all counts to the number bacteria killed per milliliter. Peptide concentrations were converted to logarithm base ten and graphed. Bactericidal activity was determined by dose response where LD50 values were determined by best fits of a sigmoidal curve to the dose response data.

Assay [2] concerns Pseudomonas aeruginosa type 1. As to the kind of experiment: Bactericidal assay, P. aeruginosa (P.a.). Type of assay: cell-based. To be noted: Table 1; P. aeruginosa; SD about ±30%.
Description: as §1, §2

For assay [3], the system named is E. coli J96. The format is cell-based. To be noted: Table 1; E. coli J96; SD about ±30%.
Description: as §1
as §2, with “The assay was done in 17×100 polypropylene tubes in a reciprocal water bath shaker at 37° C. for 30 minutes. Following this 30 minute (min) incubation, 10-fold dilutions were made in 0.9% sodium chloride. Dilutions were done to 10^−4 and 20 μl of each dilution was streaked across an agar plate. Gram-positive organisms were plated on nutrient agar plates containing 2% agar and Gram-negative organisms were plated on MacConkey agar (2%).” left out, “Peptide concentrations were converted to logarithm base ten and graphed.” left out

Assay [4] deals with E. coli H5. As to the kind of experiment: Bactericidal assay, smooth strain E. coli H5. To be noted: Table 1, SD about ±30%. Type of assay: cell-based.
Description: as §1, with “Diseases 11, 75–82 (1989) for MNHO and in Schlievert et al., J. Infect. Diseases 147, 236–242 (1983) for MN8. All cultures are maintained on nutrient agar plates.” left out
(§3) Pyrogen-free solutions were used throughout the assay. […] Plates were incubated overnight at 37° C. and counted the next morning. The dilution containing 10–100 bacteria was counted and the number multiplied by 50 to adjust all counts to the number bacteria killed per milliliter. […] Bactericidal activity was determined by dose response where LD50 values were determined by best fits of a sigmoidal curve to the dose response data.

For assay [5], the system named is E. coli IA2. As to the kind of experiment: Bactericidal assay, smooth strain E. coli IA2. Type of assay: cell-based. To be noted: Table 1, SD about ±30%.
Description: as §1, with “Diseases 11, 75–82 (1989) for MNHO and in Schlievert et al., J. Infect. Diseases 147, 236–242 (1983) for MN8. All cultures are maintained on nutrient agar plates.” left out
as §3

Assay [6] relates to Staphylococcus aureus MN8. As to the kind of experiment: Bactericidal assay, Gram-positive S. aureus MN8. Type of assay: cell-based. To be noted: Table 1, SD about ±30%.
Description: as §1, with “Diseases 11, 75–82 (1989) for MNHO and in Schlievert et al., J. Infect. Diseases 147, 236–242 (1983) for MN8. All cultures are maintained on nutrient agar plates.” left out
as §3

Assay [7] relates to Staphylococcus aureus MNHO. As to the kind of experiment: Bactericidal assay, Gram-positive S. aureus MNHO. The format is cell-based. To be noted: Table 1; S. aureus MNHO; SD about ±30%.
Description: as §1, §2

The subject of assay [8] is E. coli 055:B5 LPS. As to the kind of experiment: Limulus amoebocyte lysate assay for LPS neutralization. Type of assay: biochemical. An excerpt: The ability of synthetic peptides to neutralize endotoxin was detected using the chromogenic QCL-1000 kit from BioWhittaker, Inc. (Walkersville, Md.) as described in their protocol. This method is quantitative for Gram-negative bacterial endotoxin (lipopolysaccharide, LPS). In the Limulus amebocyte lysate (LAL) assay, peptides that are active inhibit the LPS-mediated activation of a proenzyme (Young et al., J. Clin. Invest. 51, 1790–1797 (1972)) whose active form would release p-nitroaniline (pNA) from a colorless synthetic substrate (Ac-Ile-Glu-Ala-Arg-pNA), producing a yellow color (pNA) whose absorption is monitored spectrophotometrically at 405–410 nm. The initial rate of enzyme activation is proportional to the concentration of endotoxin present. The concentration of peptide required to bind to LPS and therefore to inhibit the Limulus amoebocyte lysate driven by 0.04 unit (or 0.01 ng) of E. coli 055:B5 LPS (from SIGMA) was determined by dose response.

Assay [9] has as its system bacteria. To be noted: Mayo et al. 1998; cited from earlier work.
Assay [10] relates to P. aeruginosa. To be noted: against P. aeruginosa; Lee et al. 1989; cited from earlier work.
For assay [11] the following is noted: literature value; read-out: LPS binding activity (IC50); cited from earlier work.

Regarding “SIQKLNVSMKLFRKQAKWKIIVKLNDGRELSLD [βpep-19, reference compound]”, in assay [1], the “LD50 bactericidal activity, Gram neg. rough J5” value is given as 0.01 10^−6 M. Further, the “LD50 bactericidal activity, Gram neg. smooth P.a.” value in assay [2] is 0.03 10^−6 M. Moreover, the “LD50 bactericidal activity, Gram neg. smooth J96” value in assay [3] is on record as 0.1 10^−6 M. In assay [4], the “LD50 bactericidal activity, Gram neg. smooth H5” value is listed as 0.71 10^−6 M. Also, the “LD50 bactericidal activity, Gram neg. smooth IA2” value in assay [5] is reported as 0.06 10^−6 M. For the same molecule, in assay [6], the “LD50 bactericidal activity, Gram-positive MN8” value was 0.25 10^−6 M. In addition, the “LD50 bactericidal activity, Gram-positive MNHO” value in assay [7] is reported as 0.16 10^−6 M. Also, the 50% inhibitory concentration (IC50) was 2000 nM in assay [8] (Table 1, SD about ±30%, read-out: LPS effect, IC50 for neutralization of LPS) and about 2000 nM in [8] (read-out: IC50 LPS neutralization). Also, in assay [9], the bactericidal concentration range is listed as ~10^−8 M.

For cecropin P1, the lethal concentration in assay [10] is 6 µM.

B1: B/PI: 55 kD protein B/PI, bactericidal/permeability increasing protein (protein, UniProt P17213 32-487, looked up)
Bactericidal …: VNPGVVVRISQKGLDYASQQGTAALQKELKRIKIPDYSDSFKIKHLGKGHYSFYSMDIREFQLPSSQISMVPNVGLKFSISNANIKISGKWKAQKRFLKMSGNFDLSIEGMSISADLKLGSNPTSGKPTITCSSCSSHINSVHVHISKSKVGWLIQLFHKKIESALRNKMNSQVCEKVTNSVSSELQPYFQTLPVMTKIDSVAGINYGLVAPPATTAETLDVQMKGEFYSENHHNPPPFAPPVMEFPAAHDRMVYLGLSDYFFNTAGLVYQEAGVLKMTLRDDMIPKESKFRLTTKFFGTFLPEVAKKFPNMKIQIHVSASTPPHLSVQPTGLTFYPAVDVQAFAVLPNSSLASLFLIGMHTTGSMEVSAESNRLVGELKLDRLLLELKHSNIGPFPVELLQDIMNYIVPILVLPRVNEKLQKGFPLPTPARVQLYNVVLQPHQNFLLFGADVVYK
As to B1, the IC50 in [11] was 20 nM.
